Publication PMC11395333, “The Bifunctional Dimer Caffeine-Indan Attenuates α-Synuclein Misfolding, Neurodegeneration and Behavioral Deficits after Chronic Stimulation of Adenosine A1 Receptors” (International Journal of Molecular Sciences, 2024)

Experiments:
[1] = test system: α-Syn; set-up: method as in PMID 35139916; conditions: co-administration with CPA; cited from earlier work
[2] = In vivo metabolic stability, radio-HPLC of tissue extracts; set-up: species or system CD-1 mice; conditions: liver and pancreas extracts, 40 min p.i.
Experimental: The liver, pancreas, and brain were collected, washed with saline, placed in water/acetonitrile, and homogenized using the Fisherbrand™ 150 Handheld Homogenizer (Thermo Fisher Scientific, Waltham, MA, USA). The samples were centrifuged at 14,000 relative centrifugal force (rcf) for 5 min (AccuSpin Micro 17, Thermo Fisher Scientific, Waltham, MA, USA). The supernatants were collected and filtered using 0.22 μm organic Millipore-Sigma filters (Oakville, ON, Canada). The clarified filtrate was injected into the HPLC and radioanalytes separated by a reverse phase column (5 μm C18, 9.4 × 250 mm reverse phase column, PN-990967-202, flow rate 5.00 mL/min) using the same gradient elution as described in Table 1. The elution of radioactive metabolites was detected using the radiation detector as described above. […] The radioactivity in each organ/tissue was measured using a calibrated automatic gamma counter (2480 Perkin Elmer, Waltham MA, USA) and the tissue uptake was expressed as a percentage of injected dose (ID) per gram (% ID/g). All radioactivity measurements were corrected for decay. Data are shown as average mean± SEM, calculated using replication for each sample.

[3] = Ex vivo biodistribution in healthy CD-1 mice; conditions: for Biodistribution, blood / Biodistribution, bone / Biodistribution, brain / Biodistribution, heart / Biodistribution, kidney / Biodistribution, large intestine / Biodistribution, liver / Biodistribution, lung / Biodistribution, small intestine / Biodistribution, spleen: tail vein injection
Experimental: The liver, pancreas, and brain were collected, washed with saline, placed in water/acetonitrile, and homogenized using the Fisherbrand™ 150 Handheld Homogenizer (Thermo Fisher Scientific, Waltham, MA, USA). The samples were centrifuged at 14,000 relative centrifugal force (rcf) for 5 min (AccuSpin Micro 17, Thermo Fisher Scientific, Waltham, MA, USA). The supernatants were collected and filtered using 0.22 μm organic Millipore-Sigma filters (Oakville, ON, Canada). The clarified filtrate was injected into the HPLC and radioanalytes separated by a reverse phase column (5 μm C18, 9.4 × 250 mm reverse phase column, PN-990967-202, flow rate 5.00 mL/min) using the same gradient elution as described in Table 1. The elution of radioactive metabolites was detected using the radiation detector as described above. […] The mice were euthanized (anesthesia followed by cervical dislocation followed by cardiac puncture and blood draw) at 5, 10, 20, 40, and 60 min p.i., and different organs were harvested (blood, liver, small intestine, kidney, spleen, lung, heart, large intestine, bone, and brain), washed and placed in pre-weighed tubes. The radioactivity in each organ/tissue was measured using a calibrated automatic gamma counter (2480 Perkin Elmer, Waltham MA, USA) and the tissue uptake was expressed as a percentage of injected dose (ID) per gram (% ID/g). All radioactivity measurements were corrected for decay. Data are shown as average mean± SEM, calculated using replication for each sample.

[4] = Micro-PET/CT dynamic imaging; type: in vivo, CD-1 mice
Experimental: The acquisition of dynamic PET data (10 × 10, 8 × 15, 6 × 20, 6 × 30, 4 × 60, 1 × 100, 4 × 100, 6 × 150, 4 × 300) was started immediately after radiotracer injection, followed by a 1 min CT scan. PET/CT images were registered and reconstructed automatically by the GNEXT system. PET images were reconstructed using a 3D-ordered Subset Expectation Maximization algorithm with 24 subsets and 3 iterations. CT images were reconstructed using a Modified Feldkamp algorithm. All data were analyzed using Vivoquant software (IviCRO) (InVicro, Needham, MA, USA). CT images were used to define anatomical regions of interest (ROIs) through PET/CT image co-registration. The quantification of activity concentration in the brain was performed by drawing ROIs and the mean and maximum standard uptake values (SUVs) were determined using the formula: SUV = [(MBq/mL) × (animal wt. (g))/injected dose (MBq)].

[5] = set-up: method as in PMID 34187286; conditions: cited from earlier work
[6] = extrapolated from unbound CLint in mouse liver microsomes, well-stirred model; cited from earlier work

NC1CCc2ccccc21 (stereo not drawn) [1-aminoindan]
CPA-induced α-Syn aggregation and neurodegeneration [1]: prevented the CPA-induced α-Syn aggregation and neurodegeneration

CCCn1c(=O)c2[nH]c(C3CCCC3)nc2n(CCC)c1=O [DPCPX]
CPA-induced α-Syn aggregation and neurodegeneration [1]: prevented the CPA-induced α-Syn aggregation and neurodegeneration

Cn1c(=O)c2c(nc(CCCCCCNC3CCc4ccccc43)n2CCC[18F])n(C)c1=O (stereo not drawn) [^18F–C8–6–I]
Parent compound share of the radioactivity signal [2]: ≥ 95% | Defluorination in vivo (from bone uptake) ([3]; mouse, in vivo): little defluorination occurred in vivo | blood5min/blood20min ([3]; ratio of blood radioactivity): 1.1 | blood5min/blood60min ([3]; ratio of blood radioactivity): 1.9 | brain5min/brain20min ([3]; ratio of brain uptake): 1.7 | brain5min/brain60min ([3]; ratio of brain uptake): 3.4 | Biodistribution, blood ([3]; 5 min p.i.): 0.76 ± 0.040 %ID/g | Biodistribution, bone ([3]; 5 min p.i.): 1.00 ± 0.18 %ID/g | Biodistribution, brain ([3]; 5 min p.i.): 0.17 ± 0.014 %ID/g | Biodistribution, heart ([3]; 5 min p.i.): 2.34 ± 0.26 %ID/g | Biodistribution, kidney ([3]; 5 min p.i.): 16.26 ± 1.82 %ID/g | Biodistribution, large intestine ([3]; 5 min p.i.): 2.98 ± 0.94 %ID/g | Biodistribution, liver ([3]; 5 min p.i.): 5.12 ± 1.65 %ID/g | Biodistribution, lung ([3]; 5 min p.i.): 7.03 ± 1.24 %ID/g | Biodistribution, small intestine ([3]; 5 min p.i.): 8.56 ± 2.02 %ID/g | Biodistribution, spleen ([3]; 5 min p.i.): 6.54 ± 0.88 %ID/g | Biodistribution, blood ([3]; 10 min p.i.): 0.78 ± 0.14 %ID/g | Biodistribution, bone ([3]; 10 min p.i.): 1.24 ± 0.44 %ID/g | Biodistribution, brain ([3]; 10 min p.i.): 0.14 ± 0.027 %ID/g | Biodistribution, heart ([3]; 10 min p.i.): 1.77 ± 0.17 %ID/g | Biodistribution, kidney ([3]; 10 min p.i.): 11.86 ± 1.74 %ID/g | Biodistribution, large intestine ([3]; 10 min p.i.): 3.06 ± 0.73 %ID/g | Biodistribution, liver ([3]; 10 min p.i.): 6.91 ± 2.02 %ID/g | Biodistribution, lung ([3]; 10 min p.i.): 5.51 ± 0.44 %ID/g | Biodistribution, small intestine ([3]; 10 min p.i.): 11.18 ± 3.11 %ID/g | Biodistribution, spleen ([3]; 10 min p.i.): 5.49 ± 1.05 %ID/g | Biodistribution, blood ([3]; 20 min p.i.): 0.67 ± 0.19 %ID/g | Biodistribution, bone ([3]; 20 min p.i.): 1.18 ± 0.005 %ID/g | Biodistribution, brain ([3]; 20 min p.i.): 0.10 ± 0.013 %ID/g | Biodistribution, heart ([3]; 20 min p.i.): 1.14 ± 0.040 %ID/g | Biodistribution, kidney ([3]; 20 min p.i.): 11.02 ± 0.48 %ID/g | Biodistribution, large intestine ([3]; 20 min p.i.): 2.83 ± 0.068 %ID/g | Biodistribution, liver ([3]; 20 min p.i.): 6.64 ± 1.44 %ID/g | Biodistribution, lung ([3]; 20 min p.i.): 5.52 ± 0.72 %ID/g | Biodistribution, small intestine ([3]; 20 min p.i.): 13.02 ± 1.24 %ID/g | Biodistribution, spleen ([3]; 20 min p.i.): 5.71 ± 0.69 %ID/g | Biodistribution, blood ([3]; 40 min p.i.): 0.48 ± 0.029 %ID/g | Biodistribution, bone ([3]; 40 min p.i.): 1.04 ± 0.27 %ID/g | Biodistribution, brain ([3]; 40 min p.i.): 0.10 ± 0.011 %ID/g | Biodistribution, heart ([3]; 40 min p.i.): 1.01 ± 0.16 %ID/g | Biodistribution, kidney ([3]; 40 min p.i.): 8.65 ± 1.21 %ID/g | Biodistribution, large intestine ([3]; 40 min p.i.): 2.69 ± 0.26 %ID/g | Biodistribution, liver ([3]; 40 min p.i.): 4.76 ± 0.54 %ID/g | Biodistribution, lung ([3]; 40 min p.i.): 3.00 ± 1.40 %ID/g | Biodistribution, small intestine ([3]; 40 min p.i.): 9.35 ± 1.82 %ID/g | Biodistribution, spleen ([3]; 40 min p.i.): 5.80 ± 0.83 %ID/g | Biodistribution, blood ([3]; 60 min p.i.): 0.39 ± 0.11 %ID/g | Biodistribution, bone ([3]; 60 min p.i.): 1.20 ± 0.34 %ID/g | Biodistribution, brain ([3]; 60 min p.i.): 0.05 ± 0.005 %ID/g | Biodistribution, heart ([3]; 60 min p.i.): 0.49 ± 0.018 %ID/g | Biodistribution, kidney ([3]; 60 min p.i.): 4.27 ± 0.37 %ID/g | Biodistribution, large intestine ([3]; 60 min p.i.): 2.50 ± 0.93 %ID/g | Biodistribution, liver ([3]; 60 min p.i.): 5.74 ± 1.12 %ID/g | Biodistribution, lung ([3]; 60 min p.i.): 1.42 ± 0.22 %ID/g | Biodistribution, small intestine ([3]; 60 min p.i.): 12.33 ± 0.81 %ID/g | Biodistribution, spleen ([3]; 60 min p.i.): 3.79 ± 0.33 %ID/g | Standardized uptake value in the whole brain ([4]; after 50 min): 0.21 SUV | Maximum standardized uptake value in the whole brain ([4]; dynamic PET, tail vein injection): 0.47 SUV

Cn1c(=O)c2c(nc(CCCCCCNC3CCc4ccccc43)n2CCCF)n(C)c1=O (stereo not drawn) [^19F–C8–6–I]
Parent remaining in liver microsomes ([5]; 1 h incubation, human, mouse and rat liver microsomes): significant percentage of the parent ^19F–C8–6–I remained | Defluorination in liver microsomes ([5]; mouse, rat and human liver microsomes): No defluorination was observed | Predicted in vivo clearance in mouse plasma, CLp [6]: 36.0 mL/min/kg
